These are literature values, as cited in US9554998B1, “Composition of analgesic bioadhesive healing microspheres” (priority 2015, dated 2017).

For data set [1] the following is noted: applied for 30 minutes to the forearms of healthy volunteers.
For data set [2] the following is noted: single patient.

In the case of `FC(F)(F)C(Cl)Br` (centres unmarked) [halothane], the local analgesic effect result in data set [1] is given as “slight local analgesic effect”.
With `FC(F)OC(Cl)C(F)(F)F` (centres unmarked) [isoflurane], in data set [1], the local analgesic effect entry is on record as “slight local analgesic effect”.
`FCOC(C(F)(F)F)C(F)(F)F` [sevoflurane, fluoromethyl 2.2.2-trifluoro-1-(trifluoromethyl)ethyl ether]: the local analgesic effect result in data set [1] is given as “slight local analgesic effect”. In data set [2] (liquid sevoflurane directly on to the ulcer bed), the analgesic control entry was “immediate, intense and long-lasting analgesia”. The “time the ulcer took to heal” value in data set [2] (liquid sevoflurane on the ulcer bed) is on record as 16 days.
